# Patent US20240300980A1, “HETEROCYCLIC COMPOUNDS AS KRAS INHIBITOR, AND PREPARATION THEREFOR AND USE THEREOF IN TREATMENT” (SHANGHAI KECHOW PHARMA, INC., priority 2021, published 2024)
# Tested on: AGS cells (KRAS^G12D)
# Assay: Detection of cell proliferation in vitro by MTT/MTS method (cell activity experiment)
# Assay type: cell-based
# Conditions: Homo sapiens, AGS, 72 h, AGS cells; MTT/MTS; 3 days of drug treatment; read-out: AGS IC50
# Method in brief: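 KRAS G12D AGS cells seeded at 1000 per well, compound added 24 h later, 0.5% final DMSO. Viability read after 3 days of treatment by MTT (solubilised in DMSO) or MTS, 4 h, absorbance 490 nm. IC50 from dose–response curves versus DMSO control.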
row,Compound,IC50
1,"CC1(C)CCCc2cc(O)cc(-c3ncc4c(N5C[C@H]6CC[C@@H](C5)N6)nc(OC[C@@]56CCCN5C[C@H](F)C6)nc4c3F)c21 [Example 254, 4-(4-((1R,5S)-3,8-diazabicyclo[3.2.1]octan-3-yl)-8-fluoro-2-(((2R,7aS)-2-fluorotetrahydro-1H-pyrrolizin-7a(5H)-yl)methoxy)pyrido[4,3-d]pyrimidin-7-yl)-5,5-dimethyl-5,6,7,8-tetrahydronaphthalen-2-ol]",462 nM
2,"CCc1coc2cc(O)cc(-c3ccc4c(N5C[C@H]6CC[C@@H](C5)N6)nc(OC[C@@]56CCCN5C[C@H](F)C6)nc4c3F)c12 [Example 293, 4-(4-((1R,5S)-3,8-diazabicyclo[3.2.1]octan-3-yl)-8-fluoro-2-(((2R,7aS)-2-fluorotetrahydro-1H-pyrrolizin-7a(5H)-yl)methoxy)quinazolin-7-yl)-3-ethylbenzofuran-6-ol]",121 nM
3,"CC1OCCc2cc(O)cc(C3=C(F)c4nc(OC[C@@]56CCCN5C[C@H](F)C6)nc(N5C[C@H]6CC[C@@H](C5)N6)c4C4=NCCN43)c21 (stereo partly drawn) [Example 410, 8-(10-((1R,5S)-3,8-diazabicyclo[3.2.1]octan-3-yl)-6-fluoro-8-(((2R,7aS)-2-fluorotetrahydro-1H-pyrrolizin-7a(5H)-yl)methoxy)-2,3-dihydroimidazo[1′,2′:1,2]pyrido[4,3-d]pyrimidin-5-yl)-1-methylisochroman-6-ol]",75 nM
4,"C#Cc1c(F)ccc2cc(O)cc(-c3ccc4c(N5C[C@H]6CC[C@@H](C5)N6)nc(OC[C@@]56CCCN5C[C@H](F)C6)nc4c3OC3CC3)c12 [Example 327, 4-(4-((1R,5S)-3,8-diazabicyclo[3.2.1]octan-3-yl)-8-cyclopropoxy-2-(((2R,7aS)-2-fluorotetrahydro-1H-pyrrolizin-7a(5H)-yl)methoxy)quinazolin-7-yl)-5-ethynyl-6-fluoronaphthalen-2-ol]",230 nM
5,"Oc1cc(O)c2c(C#Cc3ccc4c(N5C[C@H]6CC[C@@H](C5)N6)nc(OC[C@@]56CCCN5C[C@H](F)C6)nc4c3F)c(F)ccc2c1 [Example 366, 8-((4-((1R,5S)-3,8-diazabicyclo[3.2.1]octan-3-yl)-8-fluoro-2-(((2R,7aS)-2-fluorotetrahydro-1H-pyrrolizin-7a(5H)-yl)methoxy)quinazolin-7-yl)ethynyl)-7-fluoronaphthalene-1,3-diol]",2100 nM
6,"CCc1c(F)ccc2cc(O)cc(-c3ncc4c(N5C[C@H]6CC[C@@H](C5)S6)nc(OC[C@@]56CCCN5C[C@H](F)C6)nc4c3F)c12 [Example 24, 4-(4-((1R,5S)-8-thia-3-azabicyclo[3.2.1]octan-3-yl)-8-fluoro-2-(((2R, 7aS)-2-fluorotetrahydro-1H-pyrrolizin-7a(5H)-yl)methoxy)pyrido[4,3-d]pyrimidin-7-yl)-5-ethyl-6-fluoronaphthalen-2-ol]",280 nM
7,"Oc1cc2c(c(-c3ncc4c(N5C[C@H]6CC[C@@H](C5)N6)nc(OC[C@@]56CCCN5C[C@H](F)C6)nc4c3F)c1)C1CC1C2 (stereo partly drawn) [Example 73, 2-(4-((1R,5S)-3,8-diazabicyclo[3.2.1]octan-3-yl)-8-fluoro-2-(((2R,7aS)-2-fluorotetrahydro-1H-pyrrolizin-7a(5H)-yl)methoxy)pyrido[4,3-d]pyrimidin-7-yl)-1,1a, 6,6a-tetrahydrocyclopropa [a]inden-4-ol]",16.9 nM
8,"C#Cc1c(F)ccc2cc(O)cc(-c3ncc4c(N5CC6CCCC(C5)N6)nc(OC[C@@]56CCCN5C[C@H](F)C6)nc4c3F)c12 [Example 43, 4-(4-(3,9-diazabicyclo [3.3.1]nonan-3-yl)-8-fluoro-2-(((2R,7aS)-2-fluorotetrahydro-1H-pyrrolizin-7a(5H)-yl)methoxy)pyrido[4,3-d]pyrimidin-7-yl)-5-ethynyl-6-fluoronaphthalen-2-ol]",31 nM
9,"C#Cc1c(F)ccc2cc(O)cc(-c3ccc4c(N5CC6(CCN6)C5)nc(OC[C@@]56CCCN5C[C@H](F)C6)nc4c3F)c12 [Example 216, 5-ethynyl-6-fluoro-4-(8-fluoro-2-(((2R,7aS)-2-fluorotetrahydro-1H-pyrrolizin-7a(5H)-yl)methoxy)-4-(1,6-diazaspiro[3.3]heptan-6-yl)quinazolin-7-yl)naphthalen-2-ol]",3480 nM
10,"CC[C@H]1CCCc2cc(O)cc(-c3ncc4c(N5CC6CCC(C5)N6)nc(OC[C@@]56CCCN5C[C@H](F)C6)nc4c3F)c21 (single isomer, unassigned) [Example 229, (S)-4-(4-((1R,5S)-3,8-diazabicyclo[3.2.1]octan-3-yl)-8-fluoro-2-(((2R,7aS)-2-fluorotetrahydro-1H-pyrrolizin-7a(5H)-yl)methoxy)pyrido[4,3-d]pyrimidin-7-yl)-5-ethyl-5,6,7,8-tetrahydronaphthalen-2-ol or (R)-4-(4-((1R,5S)-3,8-diazabicyclo[3.2.1]octan-3-yl)-8-fluoro-2-(((2R,7aS)-2-fluorotetrahydro-1H-pyrrolizin-7a(5H)-yl)methoxy)pyrido[4,3-d]pyrimidin-7-yl)-5-ethyl-5,6,7,8-tetrahydronaphthalen-2-ol]",2.5 nM
11,"CCC1c2c(C3=C(F)c4nc(OC[C@@]56CCCN5C[C@H](F)C6)nc(N5C[C@H]6CC[C@@H](C5)N6)c4C4=NCCN43)cc(O)cc2C2CC21 (stereo partly drawn) [Example 409, 5-(10-((1R,5S)-3,8-diazabicyclo[3.2.1]octan-3-yl)-6-fluoro-8-(((2R,7aS)-2-fluorotetrahydro-1H-pyrrolizin-7a(5H)-yl)methoxy)-2,3-dihydroimidazo[1′,2′:1,2]pyrido[4,3-d]pyrimidin-5-yl)-6-ethyl-1,1a,6,6a-tetrahydrocyclopropa[a]inden-3-ol]",45 nM
12,"C[C@@H]1CCCc2cc(O)cc(-c3ncc4c(N5CC6CCC(C5)N6)nc(OC[C@@]56CCCN5C[C@H](F)C6)nc4c3F)c21 (single isomer, unassigned) [Example 225, (R)-4-(4-((1R,5S)-3,8-diazabicyclo[3.2.1]octan-3-yl)-8-fluoro-2-(((2R,7aS)-2-fluorotetrahydro-1H-pyrrolizin-7a(5H)-yl)methoxy)pyrido[4,3-d]pyrimidin-7-yl)-5-methyl-5,6,7,8-tetrahydronaphthalen-2-ol or (S)-4-(4-((1R,5S)-3,8-diazabicyclo[3.2.1]octan-3-yl)-8-fluoro-2-(((2R,7aS)-2-fluorotetrahydro-1H-pyrrolizin-7a(5H)-yl)methoxy)pyrido[4,3-d]pyrimidin-7-yl)-5-methyl-5,6,7,8-tetrahydronaphthalen-2-ol]",668 nM
13,"C#Cc1c(F)ccc2cc(O)cc(-c3ccc4c(N5CC6CCC5CN6)nc(OC[C@@]56CCCN5C[C@H](F)C6)nc4c3F)c12 (stereo partly drawn) [Example 108, 4-(4-(2,5-diazabicyclo [2.2.2]octan-2-yl)-8-fluoro-2-(((2R,7aS)-2-fluorotetrahydro-1H-pyrrolizin-7a(5H)-yl)methoxy)quinazolin-7-yl)-5-ethynyl-6-fluoronaphthalen-2-ol]",40.5 nM
14,"O=C1CCCc2cc(O)cc(-c3ncc4c(N5C[C@H]6CC[C@@H](C5)N6)nc(OC[C@@]56CCCN5C[C@H](F)C6)nc4c3F)c21 [Example 249, 8-(4-((1R,5S)-3,8-diazabicyclo[3.2.1]octan-3-yl)-8-fluoro-2-(((2R,7aS)-2-fluorotetrahydro-1H-pyrrolizin-7a(5H)-yl)methoxy)pyrido[4,3-d]pyrimidin-7-yl)-6-hydroxy-3,4-dihydronaphthalen-1(2H)-one]",> 2500 nM
